Results reported in US20070218147A1, “Peroxisome Proliferator-Activated Receptor (Ppar) Activator, and Drugs, Supplements, Functional Foods and Food Additives Using the Same” (ARKRAY, INC., priority 2004, published 2007).

Target: T1, human PPARγ ligand-binding domain (Homo sapiens, UniProt P37231)
T1 construct: expressed in transfected cells; host or cells: CV-1 cells (African green monkey kidney)
T1 sequence (P37231 204-505): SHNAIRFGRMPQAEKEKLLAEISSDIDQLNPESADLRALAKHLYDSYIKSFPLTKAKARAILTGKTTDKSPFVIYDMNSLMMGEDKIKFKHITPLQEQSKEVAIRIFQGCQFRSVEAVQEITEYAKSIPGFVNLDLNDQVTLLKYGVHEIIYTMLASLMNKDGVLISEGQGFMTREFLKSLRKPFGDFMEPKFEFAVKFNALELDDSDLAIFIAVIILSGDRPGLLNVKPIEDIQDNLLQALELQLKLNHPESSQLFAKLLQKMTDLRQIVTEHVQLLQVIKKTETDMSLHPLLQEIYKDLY
Assay: GAL4-hPPARγ luciferase reporter assay (PPARγ ligand activity) in transfected CV-1 cells
Assay type: cell-based
Conditions: for PPARγ ligand activity: 24 hour incubation, CV-1 cells, luciferase activity relative to non-treatment control (DMSO) = 100, average ± standard error, n=4
Method: First, CV-1 cells (cultured cells derived from kidneys of male African green monkeys) were implanted on 24-well culture plates so as to be […] and cultured at 37° C. in 5% CO2 for 24 hours. As a medium, DMEM (Dulbecco's Modified Eagle Medium; manufactured by GIBCO) containing 10% FBS (fetal bovine serum) and a 10 mg/mL penicillin streptomycin solution was used. Next, using Lipofectamine system (manufactured by Invitrogen Corporation), pM-hPPARγ and p4×UASg-tk-luc were transfected into the cultured CV-1 cells. The above-noted pM-hPPARγ was a vector for expressing fused protein containing residues 1 - 147 of GAL4 binding domain and residues 204 - 505 of human PPARγ ligand-binding domain, whereas the above-noted p4×UASg-tk-luc was a reporter plasmid containing four copies of an upstream activating sequence (UAS) for GAL4 binding domain and a thymidine kinase gene promoter in front of a luciferase gene. After the transfection, the cells were cultured for about 24 hours, and then, the media for the cells were changed to media containing β-cryptoxantine at respective concentrations (0.1, 1.0, 10 and 70 μM) or media for non-treatment control, followed by an additional 24 hour incubation. The above-noted media containing β-cryptoxantine were prepared by adding β-cryptoxantine dissolved in dimethyl sulfoxide (DMSO) to the media, whereas the media for non-treatment control were prepared by adding only DMSO to the media. After the incubation, the cells were lysed for luciferase activation assay using a Dual-Luciferase Reporter Gene Assay system (manufactured by Promega Corporation) (measurement group).
Similarly to the measurement group, as a control group, the luciferase activation assay was performed using pM (a vector containing residues 1 - 147 of GAL4 binding domain and not containing residues 204-505 of PPARγ ligand-binding domain in pM-hPPARγ) instead of pM-hPPARγ. For each sample, the ratio between average light-emission intensities of the measurement group and the control group (n=4) (measurement group/control group) was calculated, and a luciferase activity relative to the non-treatment control was determined as the PPARγ ligand-binding activity of the sample.

CC1=C(/C=C/C(C)=C/C=C/C(C)=C/C=C/C=C(C)/C=C/C=C(C)/C=C/C2=C(C)C[C@@H](O)CC2(C)C)C(C)(C)CCC1 [β-cryptoxantine]
activity of PPARγ (result in words) (0.1 to 70 μM, activity increased in keeping with the concentration): improved the activity of PPARγ
PPARγ ligand activity (addition concentration 0.1 μM): 119 ± 18.4
PPARγ ligand activity (addition concentration 1.0 μM): 159 ± 25.0
PPARγ ligand activity (addition concentration 10 μM): 166 ± 21.7
PPARγ ligand activity (addition concentration 70 μM): 246 ± 22.5
